Laboratory results: patent US5175156A, “Chromic picolinate treatment” (Nutrition 21, priority 1991, dated 1992)
Values joined by “and” are separate entries in the source; they are usually repeats but may differ in a detail not shown here. Equal entries are not always repeated. “Also recorded” adds a separate entry of the source.

Assays:
[1] = Absorption of orally administered chromium-51 compounds, radioactivity in liver and kidney (Example 1); conditions: rat; for Total radioactivity in tissue, Kidney / Total radioactivity in tissue, Liver: 150 ng oral gavage, 120 h after administration
Experimental: In this example, chromic tripicolinate was first synthesized by combining 3.66 grams of picolinic acid (Sigma Chemical, St. Louis) and 2.66 grams of chromic chloride with 20 ml. of deionized water. The solution was heated with stirring for 15 minutes after which the contents were placed in a refrigerator overnight to obtain maximum crystalization. The supernatant was removed by vacuum filtration followed by recrystalization from hot deionized water. To synthesize chromic (chromium-51) tripicolinate, 0.12 micromoles recrystalized picolinic acid was added to a solution containing 0.03 micromoles of chromic (Cr^51) chloride in 5.0 ml. acetate buffer, pH 5.0. The solution was stirred for 30 minutes at 90° C., cooled and subsequently reheated for 30 minutes at 90° C. The solution was cooled to room temperature before use.
Each of four male Sprague-Dawley rats weighing 125-150g was given an oral dose of 150 ng. chromic (Cr-51) picolinate in 0.51 ml. by gavage tube. An identical quantity of Cr-5I as chloride in acetate buffer was also administered to each of four rats. […] One hundred twenty hours after oral administration of the two forms of labeled chromium, each of the rats was killed by exsanguination after which the liver and kidneys were removed and cut into 1.0 g portions for assay of radioactivity content.

[2] = in vivo; cited from earlier work
[3] = tested on: adult onset diabetes mellitus (AODM)
Experimental: Eleven subjects with adult onset diabetes mellitus (AODM), participated in this study. These subjects had hemoglobin A1 C concentrations greater than 9.0 and were on stable doses of oral hypoglycemic agents for four months. […] The dose of oral agent remained constant during the study.
The following parameters: Cholesterol, HDL, LDL, and hemoglobin A1 C were tested initially, and at the end of each half of the study. Fasting blood sugars, blood pressure, weight and temperature were tested initially; at three weeks; and at the end of the study.
Glycosylated hemoglobin was measured by a modification of the method of Clegg and Schroeder (Clegg, et al. J. Lab Clin. Med., 102:577-589, (1983)), using a Fast Hemoglobin Minicolumn, available from Isolab; Akron, Ohio, U.S.A.). Normal values are 5.5 to 7.5%. Fasting glucoses were measured by finger stick glucometer readings (using an Accucheck II from Boehringer Mannheim, Indianapolis, Ind., U.S.A.).
Split samples of cholesterol were sent to laboratories for analysis. Split samples of apolipoproteins were analyzed on a Beckman Array protein analyzer that was standardized by the Center for Disease Control, Atlanta, Georgia, U.S.A., using Lipid Research Clinic Guidelines (see J. A. M. A. 251: 351, (1984) and J. A. M. A. 251: 365, (1984)).
For EXAMPLE 4, summary statistics are expressed as the mean ± standard error of the mean (SEM). Split-plot analyses of variance were used to assess treatment effects on the various parameters in the cross-over studies of variance (see Hills, et al., Br. J. Clin. Pharmacol. 8:7-20, (1979)). Correlation analysis was performed with a linear regression curve-fitting program.

[4] = in vivo
Experimental: Subjects for the study were obtained after screening a group of volunteers. Thirty-two volunteers age 25-80 with total cholesterol levels of 5.7-8.3 mmoles/l (220-320 mg/dl) were initially chosen. […] None of the subjects was using beta blockers, thiazide diuretics, steroids, chromium supplements or any investigational drugs. The volunteers were requested not to alter dietary or exercise habits during the course of the study. Informed consent was obtained and the subjects were paid a stipend for their participation.
For the double-blind, cross-over study, subjects were divided randomly into two treatment groups by a non-participant. During each half of the study participants ingested gelatin capsules that contained either chromic tripicolinate or a placebo. The chromic tripicolinate supplement contained 1.6 mg chromium tripicolinate (200 micrograms Cr^+3) mixed with 5 mg calcium phosphate. The placebo contained only 5 mg calcium phosphate. The study consisted of two 42-day periods with a 14-day period off capsules between treatments. Compliance by subjects was monitored by capsule count.
At the beginning, after three weeks and at the end of each period, heart rate, blood pressure, weight and temperature were measured and a fasting-blood sample was drawn. Serum parameters measured included total cholesterol, LDL-cholesterol, HDL-cholesterol, triglycerides, apolipoprotein A1 and apolipoprotein B. Serum concentrations of cholesterol and triglycerides were determined with an Olympus 500 Automated Colormetric System (Olympus Instrument Co., Los Angeles, Calif., U.S.A.). HDL-cholesterol was assayed with an enzyme heparin-manganese chloride precipitation method (Albers et al., Clin Chem., 1978; 24:853-856). LDL-cholesterol was estimated by the method of Friedwald (Friedwald, Clin Chem., 1972; 18:499-502). Concentrations of apolipoprotein A1 and apolipoprotein B in serum were assayed with a nephelometric immunoassay (Naito, J. Clin. Immunol.. 1986; 9:110-120) using a Boehringer laser kit.
For statistical analysis of the measurements made in this study, the values obtained at the beginning and at the end of each 42-day period were used. Because each subject served as its own control, paired t tests were used to identify statistically significant differences between mean values of changes and differences in changes. Student's t test and p values were determiend with the program WORMSTAT™ (available from Small Business Computers, New England, Conn., U.S.A.).

[5] = Oral toxicity experiment in rats (Example 2); format: in vivo
Experimental: In a toxicity experiment, rats weighing a mean of 223.4 g were given an oral suspension of 100 mg, 300 mg and 500 mg chromic tripicolinate in water. […] The tests were stopped at 500 mg because it was impossible to obtain a workable suspension beyond this level.

[6] = tested on: Glucose Tolerance Factor activity; test: Glucose Tolerance Factor activity; conditions: no data given
[7] = Anabolic effect in male university students in weight training (Example 5); format: in vivo, human
Experimental: This study was performed to evaluate the anabolic effect of chromic tripicolinate in male subjects.
At the start of the study, 10 male university students enrolled in weight training classes, were given, at random, a 40-day supply of capsules that contained either placebo (5 mg of calcium phosphate) or chromic tripicolinate ([…] chromic tripicolinate admixed with 5 mg of calcium phosphate, which provided 200 ug of chromium). The identity of the capsules was known only to an individual who was not in any way involved in the study. During the 40-day period, each of the volunteers followed a prescribed weight lifting protocol for a total of 3 hours per week. Measurements taken at the beginning and again at the end of the study included various skin-fold thicknesses, biceps and calf circumferences, and body weight. Percent body fat was derived from the sum of the triceps, subscapular and chest skinfolds. Lean body mass was derived from anthropometrically-determined percent body fat: weight-(weight×percent body fat).

[8] = tested on: serum lipid parameters; test: Double-blind cross-over human study, serum lipid parameters (Example 3); format: in vivo
Experimental: Chromium tripicolinate was synthesized by first dissolving 2.66 g CrCl3.6 H2 O in 25 ml warm (60° C.), deionized water. Thereafter, 3.69 g picolinic acid (Sigma Chemical, St. Louis, Mo., U.S.A.) was added and the contents were stirred with gentle heating until the solution turned purple and crystals began to form. The solution was then left standing at 4° C. overnight. The supernatant was then discarded and the crystals were airdried at room temperature.
The placebo contained only 5 mg calcium phosphate. […] Compliance by subjects was monitored by capsule count. The foregoing study protocol is illustrated in FIG. 1.

[9] = tested on: insulin and insulin receptors; test: Binding to insulin and insulin receptors; conditions: no data given
[10] = 6 weeks Cr supplementation, 11 AODM subjects, mean ± SEM
[11] = 6 weeks Cr supplementation, 11 AODM subjects, mean ± SEM, significant difference from placebo, p <0.05
[12] = 28 subjects, mean ± SD, 42 days
[13] = 28 subjects, mean ± SD, 42 days, listed as Chromic Tripicolinate
[14] = 28 subjects, mean ± SD, start of 42-day period
[15] = combined results, 42 days, p<0.001

With `[Cl][51Cr]([Cl])[Cl]` [Chromic (Cr-51) Chloride, chromic (Cr^51) chloride, reference compound] the “Total radioactivity in tissue, Kidney” value [1] was 39030 CPM and the “Total radioactivity in tissue, Liver” value [1] was 30050 CPM.
With `O=C([O-])c1ccccn1.O=C([O-])c1ccccn1.O=C([O-])c1ccccn1.[Cr+3]` [Chromic (Cr-51) Picolinate, chromic (chromium-51) tripicolinate] the “Total radioactivity in tissue, Kidney” value [1] was 157525 CPM and the “Total radioactivity in tissue, Liver” value [1] was 115075 CPM.
For `[Cl][Cr]([Cl])[Cl]` [chromic chloride, reference compound], the “effect of supplementation, result in words” value [2] is given as “improvements of risk factors associated with maturity-onset diabetes and cardiovascular diseases”.
In the case of `[Cr]` [chromium], the “effect of supplementation, result in words” value [2] is listed as “improvements in glucose tolerance, serum lipid concentrations, including high-density lipoprotein cholesterol, insulin and insulin binding”.
For chromic tripicolinate, the “rate of absorption relative to chromic chloride” value ([1]; in vivo, po, 7200 min) was “about 4 times”, the Cholesterol [3, 10] was 211.4 and the HDL [3, 10] was 52.3. For the same molecule, the LDL [3, 10] was 139.5, the “Fasting Bld Sugar” value [3, 11] was 162.2 and the “Hemoglobin A1 C” value [3, 11] was 10.4. For the same molecule, the “HDL, trend in words” value ([3]; P was not <0.05) was “trends were favorable”, the “cholesterol, trend in words” value ([3]; P was not <0.05) was “trends were favorable” and the “fasting glucose, change in words” value ([3]; diabetic subjects) was “significant decreases”. For the same molecule, the “glycosylated hemoglobin, change in words” value ([3]; diabetic subjects) was “significant decreases”, the “Blood Pressure, first figure” value ([3]; human, in vivo) was 132.9 and the “Blood Pressure, second figure” value ([3]; human, in vivo) was 72.4. The “Heart Rate” value ([3]; human, in vivo) was 70.1, the Temperature ([3]; human, in vivo) was 97.8 °F and the “blood pressure, change in words” value ([3]; human, in vivo) was “no significant changes”. For the same molecule, the “heart rate, change in words” value ([3]; human, in vivo) was “no significant changes”, the “temperature, change in words” value ([3]; human, in vivo) was “no significant changes” and the “weight, change in words” value ([3]; human, in vivo) was “no significant changes”. For the same molecule, the “LDL, decrease” value ([3]; treatment versus placebo (FIG. 9)) was 8%, the “blood pressure, change in words” value [4] was “No significant changes” and the “heart rate, change in words” value [4] was “No significant changes”. The “subjects who developed a fine rash about their forearms” value [4] was “one”, the “subjects who developed mouth ulcers” value [4] was “one” and the “temperature, change in words” value [4] was “No significant changes”. The “human dose before any effects would be observed” value ([5]; 70 Kg human, extrapolated from rats) was “greater than 156 grams”, the oral lethal dose ([5]; rats, mean 223.4 g, oral suspension in water) was greater than 2200 mg/kg and the deaths ([5]; rats, oral 100 mg, 300 mg and 500 mg) was “No deaths occurred”. The “Glucose Tolerance Factor activity” value [6] was “has Glucose Tolerance Factor activity”, the “calculated lean body mass, increase” value ([7]; 40 days, 200 ug chromium, P=0.017) was 1.6 kg and the “calf circumference, increase” value ([7]; 40 days, 200 ug chromium, P=0.029) was 1.15±0.67 cm. The “body weight, increase” value ([7]; 40 days, 200 ug chromium, P=0.0325) was 2.18 ± 1.34 kg, the “increase in lean body mass compared with placebo group” value ([7]; Student's t test, P=0.0198) was “significantly greater” and the “Apo B, change” value ([8]; 28 subjects, 42 days, p = .001) was -25 mg/dL. For the same molecule, the “Apo A, change” value ([8]; 28 subjects, 42 days, p = .003) was “+16 mg/dl”, the “apolipoprotein B, reduction” value ([8]; 28 subjects, 42 days, p=0.001) was 16% and the “LDL-cholesterol, final” value ([8]; 28 subjects, after 42 days) was 178 mg/dL. For the same molecule, the “LDL-cholesterol, initial” value ([8]; 28 subjects, before 42 days) was 200 mg/dL, the “Apo A, final” value [8, 12] was 163 ± 31 mg/dL and the “Apo B, final” value [8, 12] was 130 mg/dL. The “Cholesterol Total, final” value [8, 12] was 256 mg/dL, the “LDL, final” value [8, 12] was 5.1 mmol/L and the “Cholesterol Total, final” value ([8]; 28 subjects, mean ± SD, 42 days, 200 micrograms Cr daily) was 6.6 mmol/L. The “Cholesterol Total, final” value ([8]; 28 subjects, mean ± SD, 42 days, 200 micrograms Cr daily, listed as Chromic Tripicolinate) was 6.6 ± 1.0 mmol/L, the “Apo B, final” value [8, 13] was 130 ± 45 mg/dL and the “Cholesterol Total, final” value [8, 13] was 256 ± 41 mg/dL. For the same molecule, the “Apo A, initial” value [8, 14] was 147 ± 28 mg/dL, the “Apo B, initial” value [8, 14] was 155 mg/dL and the “LDL, initial” value [8, 14] was 5.7 mmol/L. For the same molecule, the “Apo B, initial” value ([8]; 28 subjects, mean ± SD, start of 42-day period, listed as Chromic Tripicolinate) was 155 ± 50 mg/dL, the “serum HDL-cholesterol, change in words” value ([8]; 28 subjects, p>0.05) was “increased slightly but not significantly” and the “LDL-cholesterol, decrease” value ([8]; 42 days) was 10% and 10.5%. For the same molecule, the “Total cholesterol concentration, decrease” value ([8]; 42 days) was 7%, the “serum triglycerides, change in words” value ([8]; 42 days) was “No significant changes” and the “LDL-cholesterol, change in words” value [8, 15] was “decreased significantly; also recorded: significant (p<0.001) reductions”. For the same molecule, the “total cholesterol, change in words” value [8, 15] was “decreased significantly; also recorded: significant (p<0.001) reductions”, the “apolipoprotein B, change in words” value ([8]; combined results, 42 days, p=0.001) was “significant reduction; also recorded: decreased significantly” and the “apolipoprotein A1, change in words” value ([8]; combined results, 42 days, p=0.003) was “significant elevation; also recorded: significantly elevated”. The “LDL-cholesterol, change in words” value ([8]; final 42 days, placebo-first group, p=0.003) was “decreased significantly”, the “total cholesterol, change in words” value ([8]; final 42 days, placebo-first group, p=0.009) was “decreased significantly” and the “apolipoprotein B, change in words” value ([8]; first 6-week period, subjects starting with chromic tripicolinate, p=0.003) was “significantly decreased”. For the same molecule, the “total cholesterol, change in words” value ([8]; first 6-week period, subjects starting with chromic tripicolinate, p=0.007) was “significantly decreased”, the “LDL-cholesterol, change in words” value ([8]; first 6-week period, subjects starting with chromic tripicolinate, p=0.015) was “significantly decreased” and the “apolipoprotein A1, change in words” value ([8]; first 6-week period, subjects starting with chromic tripicolinate, p=0.047) was “significantly elevated”. The “subjects with decreased LDL-cholesterol” value ([8]; of 28 subjects) was 20, the “subjects with elevated cholesterol” value ([8]; of 28 subjects) was 4 and the “subjects with lower total cholesterol” value ([8]; of 28 subjects) was 22. For the same molecule, the “subjects with unchanged LDL-cholesterol” value ([8]; of 28 subjects) was 3, the “subjects with unchanged total cholesterol” value ([8]; of 28 subjects) was 2 and the “apolipoprotein B, change in words” value ([8]; placebo-first group, after chromic tripicolinate, p=0.072) was “decreased, but not significantly”. For the same molecule, the “apolipoprotein A1, change in words” value ([8]; placebo-first group, chromic tripicolinate period, p=0.007) was “increased significantly” and the “binding to insulin and insulin receptors” value [9] was “binds to insulin and insulin receptors”.
